Source: patent US20170305943A1, “COMPOUNDS FOR THE TREATMENT OF BACTERIAL INFECTIONS” (priority 2014, published 2017)
Converted amounts (≈) assume the structure as drawn.

Test system: Clostridium difficile (Isolate ID ATCC 9689)
Experiment: Bacterial Assay: Determination of Antibacterial Activity (MIC, broth microdilution or agar dilution)
Type: cell-based
Conditions: Clostridioides difficile, ATCC9689, 48 h, read-out: C. difficile MIC Activity Range
Protocol: Bacterial Assay: Determination of Antibacterial Activity Compounds of the invention were tested for antimicrobial activity by susceptibility testing in liquid or on solid media. Minimum inhibitory concentrations (MICs) for compounds against each strain were determined by the broth microdilution or agar dilution method according to the guidelines of the Clinical Laboratories and Standards Institute, formerly the National Committee for Clinical Laboratory Standards (Clinical Laboratories and Standards Institute. Methods for Dilution Antimicrobial Susceptibility Tests for Bacteria That Grow Anaerobically; Approved Standard-Seventh Edition. Document M11-A7, CLSI, Wayne, Pa., 2007, Clinical Laboratories and Standards Institute). Briefly MICs were determined by visible inspection after 48 hours of growth in the presence of compounds, cultures were grown at 37° C. in anaerobic gas packs using reinforced clostridial medium supplemented with 0.1% defribrinated horse blood. The bacterial strains tested include C. difficile (Clostridium difficile (Isolate ID ATCC 9689)) (Table 2) and two drug resistant clinical isolates (Clostridium difficile (Isolate ID BI-9) and Clostridium difficile (Isolate ID 027-01) (Table 3).
MICs were determined to be within the activity ranges “A” activity≦1.01 μg/mL; “B” activity>1.0 μg/mL-4.0 μg/mL; “C” activity>4.0 μg/mL-16 μg/mL

Row | SMILES | MIC [µg/mL]
1 | NC(=O)c1c(F)ccc(O[C@H](CO)c2nc(-c3ccc(C(F)(F)F)cc3)c(Br)o2)c1F (racemic) [Compound 32, 3-(1-{5-bromo-4-[4-(trifluoromethyl)phenyl]-1,3-oxazol-2-yl}-2-hydroxyethoxy)-2,6-difluorobenzamide] | < 1.01
2 | NC(=O)c1c(F)ccc(OC(COC(=O)Nc2cccnc2)c2nc(-c3ccc(C(F)(F)F)cc3)c(Br)o2)c1F (racemic) [Compound 64, 2-{5-bromo-4-[4-(trifluoromethyl)phenyl]-1,3-oxazol-2-yl}-2-(3-carbamoyl-2,4-difluorophenoxy)ethyl pyridin-3-ylcarbamate] | < 1.01
3 | NC(=O)c1c(F)ccc(OC(CNC(=O)OCc2ccccc2)c2nc(-c3ccc(C(F)(F)F)cc3)c(Br)o2)c1F (racemic) [Compound 93, benzyl [2-{5-bromo-4-[4-(trifluoromethyl)phenyl]-1,3-oxazol-2-yl}-2-(3-carbamoyl-2,4-difluorophenoxy)ethyl]carbamate] | 1 to 4 (≈ 1.56 to 6.25 µM)
4 | COC(=O)NCC(Oc1ccc(F)c(C(N)=O)c1F)c1nc(-c2ccc(C(F)(F)F)cc2)c(Br)o1 (racemic) [Compound 94, methyl [2-{5-bromo-4-[4-(trifluoromethyl)phenyl]-1,3-oxazol-2-yl}-2-(3-carbamoyl-2,4-difluorophenoxy)ethyl]carbamate] | 1 to 4 (≈ 1.77 to 7.09 µM)
5 | CCNC(=O)NCC(Oc1ccc(F)c(C(N)=O)c1F)c1nc(-c2ccc(C(F)(F)F)cc2)c(Br)o1 (racemic) [Compound 95, 3-(1-{5-bromo-4-[4-(trifluoromethyl)phenyl]-1,3-oxazol-2-yl}-2-[(ethylcarbamoyl)amino]ethoxy)-2,6-difluorobenzamide] | < 1.01
6 | NC(=O)c1c(F)ccc(OC(CNC(=O)c2ccccc2)c2nc(-c3ccc(C(F)(F)F)cc3)c(Br)o2)c1F (racemic) [Compound 96, 3-[2-(benzoylamino)-1-{5-bromo-4-[4-(trifluoromethyl)phenyl]-1,3-oxazol-2-yl}ethoxy]-2,6-difluorobenzamide] | < 1.01
7 | NC(=O)c1c(F)ccc(OC(CNC(=O)c2cccnc2)c2nc(-c3ccc(C(F)(F)F)cc3)c(Br)o2)c1F (racemic) [Compound 97, N-[2-{5-bromo-4-[4-(trifluoromethyl)phenyl]-1,3-oxazol-2-yl}-2-(3-carbamoyl-2,4-difluorophenoxy)ethyl]pyridine-3-carboxamide] | 1 to 4 (≈ 1.64 to 6.54 µM)
8 | NC(=O)c1c(F)ccc(OC(CNC(=O)c2ccccn2)c2nc(-c3ccc(C(F)(F)F)cc3)c(Br)o2)c1F (racemic) [Compound 98, N-[2-{5-bromo-4-[4-(trifluoromethyl)phenyl]-1,3-oxazol-2-yl}-2-(3-carbamoyl-2,4-difluorophenoxy)ethyl]pyridine-2-carboxamide] | 1 to 4 (≈ 1.64 to 6.54 µM)
9 | NC(=O)c1c(F)ccc(OC(CO)c2nc(-c3ccc(Cl)s3)c(Br)o2)c1F (racemic) [Compound 101, 3-{1-[5-bromo-4-(5-chlorothiophen-2-yl)-1,3-oxazol-2-yl]-2-hydroxyethoxy}-2,6-difluorobenzamide] | 1 to 4 (≈ 2.08 to 8.34 µM)
10 | CCCCCCCCCOc1ccc(Cl)c(C(N)=O)c1F [Compound 2, 6-chloro-2-fluoro-3-(nonyloxy)benzamide] | < 1.01
11 | CCCCCC/C=C/COc1ccc(F)c(C(N)=O)c1F [Compound 3, 2,6-difluoro-3-[(2E)-non-2-en-1-yloxy]benzamide] | < 1.01
12 | CCCCCCOCCOc1ccc(F)c(C(N)=O)c1F [Compound 4, 2,6-difluoro-3[2-(hexyloxy)ethoxy]benzamide] | 1 to 4 (≈ 3.32 to 13.3 µM)
13 | CCCCCCCCCOc1ccc(F)c(C(N)=O)c1Cl [Compound 5, 2-chloro-6-fluoro-3-(nonyloxy)benzamide] | < 1.01
14 | CC/C=C\CCCCCOc1ccc(F)c(C(N)=O)c1F [Compound 6, 2,6-difluoro-3-[(6Z)-non-6-en-1-yloxy]benzamide] | < 1.01
15 | NC(=O)c1c(F)ccc(OCc2nc(-c3ccc(Cl)cc3)no2)c1F [Compound 13, 3-{[3-(4-chlorophenyl)-1,2,4-oxadiazol-5-yl]methoxy}-2,6-difluorobenzamide] | 1 to 4 (≈ 2.73 to 10.9 µM)
16 | C=CCc1ccc2sc(COc3ccc(F)c(C(N)=O)c3F)nc2c1 [Compound 14, 2,6-difluoro-3-{[5-(prop-2-en-1-yl)-1,3-benzothiazol-2-yl]methoxy}benzamide] | 4 to 16 (≈ 11.1 to 44.4 µM)
17 | NC(=O)c1c(F)ccc(OCc2nc(-c3ccc(F)cc3)cs2)c1F [Compound 15, 2,6-difluoro-3-{[4-(4-fluorophenyl)-1,3-thiazol-2-yl]methoxy}benzamide] | 1 to 4 (≈ 2.74 to 11 µM)

Row | SMILES | MIC [µg/mL]
18 | Cc1ccc(-c2nc(CCOc3ccc(F)c(C(N)=O)c3F)c(C)o2)cc1 [Compound 18, 2,6-difluoro-3-{2-[5-methyl-2-(4-methylphenyl)-1,3-oxazol-4-yl]ethoxy}benzamide] | 1 to 4 (≈ 2.69 to 10.7 µM)
19 | COc1ccc(-c2nc(COc3ccc(F)c(C(N)=O)c3F)oc2Br)cc1 [Compound 22, 3-{[5-bromo-4-(4-methoxyphenyl)-1,3-oxazo1-2-yl]methoxy}-2,6-difluorobenzamide] | < 1.01
20 | COc1ncc(-c2csc(C(C)Oc3ccc(F)c(C(N)=O)c3F)n2)s1 (stereo not shown) [Compound 23, 2,6-difluoro-3-[1-(2′-methoxy-4,5′-bi-1,3-thiazol-2-yl)ethoxy]benzamide] | 4 to 16 (≈ 10.1 to 40.3 µM)
21 | COc1ccc(-c2nc(C(C)Oc3ccc(F)c(C(N)=O)c3F)oc2Br)cc1 (stereo not shown) [Compound 24, 3-{1-[5-bromo-4-(4-methoxyphenyl)-1,3-oxazol-2-yl]ethoxy}-2,6-difluorobenzamide] | < 1.01
22 | NC(=O)c1c(F)ccc(OC(CO)c2nc(-c3ccc(Cl)cc3)cs2)c1F (stereo not shown) [Compound 25, 3-{1-[4-(4-chlorophenyl)-1,3-thiazol-2-yl]-2-hydroxyethoxy}-2,6-difluorobenzamide] | 4 to 16 (≈ 9.74 to 38.9 µM)
23 | C=CCc1oc(C(C)Oc2ccc(F)c(C(N)=O)c2F)nc1-c1ccc(OC(F)(F)F)cc1 (stereo not shown) [Compound 26, 2,6-difluoro-3-(1-{5-(prop-2-en-1-yl)-4-[4-(trifluoromethoxy)phenyl]-1,3-oxazol-2-yl}ethoxy)benzamide] | 4 to 16 (≈ 8.54 to 34.2 µM)
24 | CCC(Oc1ccc(F)c(C(N)=O)c1F)c1nc(-c2ccc(Cl)cc2)c(Br)o1 (stereo not shown) [Compound 27, 3-{1-[5-bromo-4-(4-chlorophenyl)-1,3-oxazol-2-yl]propoxy}-2,6-difluorobenzamide] | 1 to 4 (≈ 2.12 to 8.48 µM)
25 | CCCc1oc(C(C)Oc2ccc(F)c(C(N)=O)c2F)nc1-c1ccc(OC(F)(F)F)cc1 (stereo not shown) [Compound 28, 2,6-difluoro-3-(1-{5-propyl-4-[4-(trifluoromethoxy)phenyl]-1,3-oxazol-2-yl}ethoxy)benzamide] | 4 to 16 (≈ 8.5 to 34 µM)
26 | CC(Oc1ccc(F)c(C(N)=O)c1F)c1nc(-c2ccc(C(F)(F)F)cc2)c(Br)o1 (stereo not shown) [Compound 29, 3-(1-{5-bromo-4-[4-(trifluoromethyl)phenyl]-1,3-oxazol-2-yl}ethoxy)-2,6-difluorobenzamide] | < 1.01
27 | CC(Oc1ccc(F)c(C(N)=O)c1F)c1nc(-c2ccc(Cl)cc2)ns1 (stereo not shown) [Compound 30, 3-{1-[3-(4-chlorophenyl)-1,2,4-thiadiazol-5-yl]ethoxy}-2,6-difluorobenzamide] | < 1.01
28 | CC(=O)OCC(Oc1ccc(F)c(C(N)=O)c1F)c1nc(-c2ccc(C(F)(F)F)cc2)c(Br)o1 (stereo not shown) [Compound 31, 2-{5-bromo-4-[4-(trifluoromethyl)phenyl]-1,3-oxazol-2-yl}-2-(3-carbamoyl-2,4-difluorophenoxy)ethyl acetate] | < 1.01
29 | CC(=O)OCC(Oc1ccc(F)c(C(N)=O)c1F)c1nc(-c2ccc(C(F)(F)F)cc2)c(Cl)o1 (stereo not shown) [Compound 34, 2-(3-carbamoyl-2,4-difluorophenoxy)-2-{5-chloro-4-[4-(trifluoromethyl)phenyl]-1,3-oxazol-2-yl}ethyl acetate] | < 1.01
30 | CNCNC(=O)c1c(F)ccc(OC(C)c2nc(-c3ccc(OC(F)(F)F)cc3)c(Cl)o2)c1F (stereo not shown) [Compound 35, 3-(1-{5-chloro-4-[4-(trifluoromethoxy)phenyl]-1,3-oxazol-2-yl}ethoxy)-2,6-difluoro-N-[(methylamino)methyl]benzamide] | < 1.01
31 | CN(C)CC(=O)OCC(Oc1ccc(F)c(C(N)=O)c1F)c1nc(-c2ccc(C(F)(F)F)cc2)c(Br)o1 (stereo not shown) [Compound 36, 2-{5-bromo-4-[4-(trifluoromethyl)phenyl]-1,3-oxazol-2-yl}-2-(3-carbamoyl-2,4-difluorophenoxy)ethyl N,N-dimethylglycinate] | < 1.01
32 | CNCC(=O)OCC(Oc1ccc(F)c(C(N)=O)c1F)c1nc(-c2ccc(Cl)cc2)c(Cl)o1 (stereo not shown) [Compound 37, 2-(3-carbamoyl-2,4-difluorophenoxy)-2-[5-chloro-4-(4-chlorophenyl)-1,3-oxazol-2-yl]ethyl N-methylglycinate] | 4 to 16 (≈ 8 to 32 µM)
33 | NC(=O)c1c(F)ccc(OC(COC(=O)CN2C(=O)c3ccccc3C2=O)c2nc(-c3ccc(C(F)(F)F)cc3)c(Br)o2)c1F (stereo not shown) [Compound 38, 2-{5-bromo-4-[4-(trifluoromethyl)phenyl]-1,3-oxazol-2-yl}-2-(3-carbamoyl-2,4-difluorophenoxy)ethyl (1,3-dioxo-1,3-dihydro-2H-isoindo1-2-yl)acetate] | < 1.01
34 | CNCC(=O)OCC(Oc1ccc(F)c(C(N)=O)c1F)c1nc(-c2ccc(C(F)(F)F)cc2)c(Br)o1 (stereo not shown) [Compound 39, 2-{5-bromo-4-[4-(trifluoromethyl)phenyl]-1,3-oxazol-2-yl}-2-(3-carbamoyl-2,4-difluorophenoxy)ethyl N-methylglycinate] | < 1.01
